Test results as given in article PMC7767166, “Imidazole and Imidazolium Antibacterial Drugs Derived from Amino Acids” (Pharmaceuticals, 2020).
pIC50: −log10 of the molar value. Several values for one entry are separate records, joined by “and”; a condition that tells them apart may be missing. Identical values can stand only once. Like-named read-outs stand apart in the source and are kept apart here.

Columns and labels:
Bacillus subtilis 1904-E = assay: Bacterial cell viability assay (Resazurin), MBC; format: cell-based; conditions: read-out: B. subtilis MBC
Experimental: (§1) The in vitro antibacterial activities of the synthesized compounds were examined against E. coli and B. subtilis. Bacteria were incubated in culture media with varying concentrations of the examined compound and the antibacterial properties were determined by observation of the optical density at 560 nm (bacteriostatic activity) and by the Resazurin cell viability assay (bactericidal activity). The corresponding minimal bactericidal concentration (MBC) and minimum inhibitory concentration (MIC) values that were obtained are summarized in Table 1 (please refer to Table S1 for MIC and MBC values in μM).
(§2) Two bacterial strains were used in the antibacterial assays: Escherichia coli DH5α as a Gram-negative model and Bacillus subtilis 1904-E as a Gram-positive model. Both bacterial strains were donated to our laboratory and can be provided on request by contacting the corresponding authors. Both bacterial strains were incubated at 37 °C and the pre-inoculum incubation time was of 24 h. Liquid Luria-Bertani (LB) medium was used for E. coli DH5α and nutrient broth (NB) for B. subtilis.
(§3) The bacteria cell bank suspensions were thawed and inoculated in the appropriate liquid broth for 24 h at 37 °C with mild agitation. A dilution from these culture solutions was used for the following tests, corresponding to an inoculum of 1 × 10^7 CFU/mL. Stock solutions of all the tested compounds were prepared in DMSO at a concentration of 100 mg/mL, aliquoted, and stored at −20 °C.
(§4) (B) Bacterial cell viability assay: Cell viability was analyzed using a Resazurin (7-Hydroxy-3H-phenoxazin-3-one 10-oxide) assay in a 96-well plate. Once the bacterial cultures of growth inhibition assay had been grown for a total of 24 h, 25 μL of a 0.1 mg/mL resazurin (prepared in LB or NB medium) were added to each well and incubated in the dark at 37 °C for 1 h under stirring. Resazurin has a blue color at the testing pH and turns pink when reduced by the viable bacteria to resorufin. Therefore, pink wells indicate metabolizing bacteria, while blue wells are indicative of bacteria that have lost their ability to convert resazurin to resorufin. Different controls were made in order to corroborate the MBC value obtained by the resazurin assay. The change of color was confirmed at 1, 4, and 24 h after its addition. The viability of bacteria was verified (either confirmed or rejected) by the colony plate-counting method, by seeding 10 μL from the cell culture onto tryptone soy agar plates and observing the presence or absence of bacterial growth after 24 h at 37 °C.

Escherichia coli DH5α = assay: Bacterial cell viability assay (Resazurin), MBC; format: cell-based; conditions: read-out: E. coli MBC
Experimental: as §1, §2, §3, §4

HEK-293 cells = assay: Cell proliferation assay for cytotoxicity (MTT); format: cell-based, human; conditions: 2 days of incubation; for IC50: Homo sapiens, HEK293, 48 h
Experimental: Human embryonic kidney cells, HEK-293, were chosen as a cell model to evaluate the cytotoxicity of the compounds. The HEK-293 cells were incubated in the cell culture medium with varying concentrations of the examined compound and the impact of treatment was measured using the MTT cell viability assay.
Cell culture media for cytotoxicity studies were purchased from Gibco (Grand Island, NY, USA). Fetal bovine serum (FBS) was obtained from HyClone (UT, USA). Supplements and other chemicals not listed in this section were obtained from Sigma Chemical Co. (St. Louis, MO, USA). Plastics for cell culture were supplied by Thermo Scientific BioLite (Madrid, Spain). All tested compounds were dissolved in DMSO at a concentration of 10 mM and stored at −20 °C until use. HEK-293 cell lines were maintained in Dulbecco’s modified Eagle’s medium (DMEM) containing glucose (1 g/L), glutamine (2 mM), penicillin (50 μg/mL), streptomycin (50 μg/mL), and amphotericin B (1.25 μg/mL) supplemented with 10% FBS.
In 96-well plates, 3 × 10^3 HEK-293 cells per well were seeded and incubated with serial dilutions of the tested compounds (from 200 to 0.2 μM) to a total volume of 100 μL of their growth media. The 3-(4,5-dimethylthiazol-2-yl)-2,5-diphenyltetrazolium bromide (MTT; Sigma Chemical Co.) dye reduction assay in 96-well microplates was used, as previously described. After 2 days of incubation (37 °C, 5% CO2 in a humid atmosphere), 10 μL of MTT (5 mg/mL in phosphate-buffered saline, PBS) was added to each well, and the plate was incubated for a further 3 h (37 °C). The supernatant was discarded and replaced by 100 µL of DMSO to dissolve formazan crystals. The absorbance was then read at 540 nm by Multiskan^TM FC microplate reader. For all concentrations of compound, cell viability was expressed as the percentage of the ratio between the mean absorbance of treated cells and the mean absorbance of untreated cells. Three independent experiments were performed, and the IC50 values (i.e., concentration half inhibiting cell proliferation) were graphically determined using GraphPad Prism 4 software.

[1] = 24 h, Resazurin after 24 h growth, nutrient broth, minimum of three experiments
[2] = mode of at least three experiments
[3] = Resazurin after 24 h growth, LB medium, minimum of three experiments

**Q.** `CCCCCCCCCCCCNC(=O)[C@H](C(C)C)n1ccnc1` [Compound 1a] was tested. Which MBC (Bacillus subtilis 1904-E; [1]) did it give?
**A.** The MBC was no more than 16 µg/mL.

**Q.** And the MBC (Bacillus subtilis 1904-E; [2])?
**A.** The MBC was 48 µM.

**Q.** And the MBC (Escherichia coli DH5α; [3])?
**A.** The MBC was greater than 2000 µg/mL.

**Q.** And the MBC (Escherichia coli DH5α; [2])?
**A.** The MBC was greater than 6000 µM.

**Q.** What about the IC50 (HEK-293 cells) of the same molecule?
**A.** The IC50 was 9.6 µM and 3.2 µg/mL.

**Q.** What does the source list for `CCCCCCCCCCCCNC(=O)[C@H](C(C)C)n1cc[n+](Cc2ccccc2)c1` [Compound 1b]?
**A.** MBC (Bacillus subtilis 1904-E; [1]): ≤ 16 µg/mL; MBC (Bacillus subtilis 1904-E; [2]): 18 µM; MBC (Escherichia coli DH5α; [3]): 256 µg/mL; MBC (Escherichia coli DH5α; [2]): 581 µM; IC50 (HEK-293 cells): 1.8 µM and 0.8 µg/mL

**Q.** With `CCCCCCCCCCCCNC(=O)[C@H](C(C)C)n1cc[n+](Cc2cccc(C[n+]3ccn([C@@H](C(=O)NCCCCCCCCCCCC)C(C)C)c3)c2)c1` [Compound 1c] as the molecule, how does the MBC (Bacillus subtilis 1904-E; [1]) read?
**A.** Its MBC is 32 µg/mL.

**Q.** What about the MBC (Bacillus subtilis 1904-E; [2]) of the same molecule?
**A.** The MBC was 34 µM.

**Q.** What about the MBC (Escherichia coli DH5α; [3]) of the same molecule?
**A.** Its MBC is 256 µg/mL.

**Q.** What about the MBC (Escherichia coli DH5α; [2]) of the same molecule?
**A.** The MBC was 269 µM.

**Q.** What about the IC50 (HEK-293 cells) of the same molecule?
**A.** The IC50 was 19 µM and 18 µg/mL.

**Q.** Which MBC (Bacillus subtilis 1904-E; [1]) does the source give for `CCCCNC(=O)[C@H](C(C)C)n1ccnc1` [Compound 2a] here?
**A.** Its MBC is greater than 2000 µg/mL.

**Q.** What about the MBC (Bacillus subtilis 1904-E; [2]) of the same molecule?
**A.** The MBC was greater than 9000 µM.

**Q.** What about the MBC (Escherichia coli DH5α; [3]) of the same molecule?
**A.** The MBC was greater than 2000 µg/mL.

**Q.** And the MBC (Escherichia coli DH5α; [2])?
**A.** The MBC was greater than 9000 µM.

**Q.** And the IC50 (HEK-293 cells)?
**A.** The IC50 was greater than 45 µg/mL.

**Q.** For `CCCCNC(=O)[C@H](C(C)C)n1cc[n+](Cc2ccccc2)c1` [Compound 2b], which MBC (Bacillus subtilis 1904-E; [1]) is on record?
**A.** The MBC was greater than 1000 µg/mL.

**Q.** And the MBC (Bacillus subtilis 1904-E; [2])?
**A.** Its MBC is 2590 µM.

**Q.** What about the MBC (Escherichia coli DH5α; [3]) of the same molecule?
**A.** The MBC was greater than 2000 µg/mL.

**Q.** And the MBC (Escherichia coli DH5α; [2])?
**A.** The MBC was greater than 5000 µM.

**Q.** What about the IC50 (HEK-293 cells) of the same molecule?
**A.** Its IC50 is greater than 79 µg/mL.

**Q.** With `CCCCNC(=O)[C@H](C(C)C)n1cc[n+](Cc2cccc(C[n+]3ccn([C@@H](C(=O)NCCCC)C(C)C)c3)c2)c1` [Compound 2c] as the molecule, how does the MBC (Bacillus subtilis 1904-E; [1]) read?
**A.** The MBC was 256 µg/mL.

**Q.** And the MBC (Bacillus subtilis 1904-E; [2])?
**A.** Its MBC is 361 µM.

**Q.** What about the MBC (Escherichia coli DH5α; [3]) of the same molecule?
**A.** The MBC was greater than 2000 µg/mL.

**Q.** What about the MBC (Escherichia coli DH5α; [2]) of the same molecule?
**A.** Its MBC is greater than 2900 µM.

**Q.** And the IC50 (HEK-293 cells)?
**A.** Its IC50 is greater than 142 µg/mL.

**Q.** `CCCCCCCCCCCCNC(=O)[C@H](Cc1ccccc1)n1ccnc1` [Compound 3a] was tested. Which MBC (Bacillus subtilis 1904-E; [1]) did it give?
**A.** Its MBC is no more than 16 µg/mL.

**Q.** And the MBC (Bacillus subtilis 1904-E; [2])?
**A.** The MBC was 42 µM.

**Q.** And the MBC (Escherichia coli DH5α; [3])?
**A.** The MBC was greater than 2000 µg/mL.

**Q.** And the MBC (Escherichia coli DH5α; [2])?
**A.** The MBC was greater than 5000 µM.

**Q.** What about the pIC50 (HEK-293 cells) of the same molecule?
**A.** The pIC50 was greater than 4.44.

**Q.** What about the IC50 (HEK-293 cells) of the same molecule?
**A.** Its IC50 is 19 µM and 7.3 µg/mL.

**Q.** With `CCCCCCCCCCCCNC(=O)[C@H](Cc1ccccc1)n1cc[n+](Cc2ccccc2)c1` [Compound 3b] as the molecule, how does the MBC (Bacillus subtilis 1904-E; [2]) read?
**A.** The MBC was 7 µM.

**Q.** And the MBC (Escherichia coli DH5α; [3])?
**A.** The MBC was 128 µg/mL.

**Q.** What about the MBC (Escherichia coli DH5α; [2]) of the same molecule?
**A.** Its MBC is 229 µM.

**Q.** And the IC50 (HEK-293 cells)?
**A.** The IC50 was 109 µM and 61 µg/mL.

**Q.** Which results are given for `CCCCCCCCCCCCNC(=O)[C@@H](Cc1ccccc1)n1cc[n+](Cc2cccc(C[n+]3ccn([C@@H](Cc4ccccc4)C(=O)NCCCCCCCCCCCC)c3)c2)c1` [Compound 3c]?
**A.** MBC (Bacillus subtilis 1904-E; [1]): 64 µg/mL; MBC (Bacillus subtilis 1904-E; [2]): 62 µM; MBC (Escherichia coli DH5α; [3]): 2000 µg/mL; MBC (Escherichia coli DH5α; [2]): 1990 µM; pIC50 (HEK-293 cells): > 4.44; IC50 (HEK-293 cells): 36 µM and 37 µg/mL
